Results on 3 compounds are retold here after patent US6710049B2, “Azole compounds as anti-fungal agents” (Ranbaxy Laboratories Limited, priority 2000, dated 2004).

Molecules are shown by their SMILES. Values after ≈ are worked out from the molar mass of the structure shown.

Experiment [1] has as its system Aspergillus species. Conditions: isolates of Aspergillus species; cited from earlier work.
For experiment [2], the target named is lanosterol 14α-de-methylase. The settings on record: the target enzyme in the fungus; cited from earlier work.
For experiment [3], the system named is Aspergillus fumigatous. Kind of experiment: In vivo anti-fungal activity, ED50 in systemically infected mice. The settings on record: mice infected i.v. with Aspergillus fumigatous, dosing for five days. Set-up: species or system Swiss albino mice. As for the experimental part: The in-vivo evaluation of the compound can be carried out at a series of dose levels by oral or I. V. injection to mice which are inoculated I.V. with the minimum lethal dose of Candida albicans, Cryptococcus neoformans or Aspergillus fumigatus by the tail vein. Activity is based on the survival of a treated group of mice after the death of an untreated group of mice. For Aspergillus and Cryptococcus infections, target organs were cultured after treatment to document the number of mice cured of the infection for further assessment of activity.
Method: Briefly, Swiss albino mice weighing 20±2 G were injected intravenously (tail vein) with sufficient fungal cells to kill 100% of the untreated animals for Aspergillus fumigatous strain used. In all cases each group comprised of six mice. Five does levels, utilizing doubling dilution range, were employed per determination ranging from 25 to 1.56 mg/kg BW. Dosing was carried out for five days starting after 30 minutes of infection. […] Treated animals were monitored twice daily for 14 days post infection at which time the experiment was terminated and ED50 was calculated.

One may read the IC50 as the concentration that inhibits the measured activity by half. Turning to `OC(Cn1cncn1)(Cn1cncn1)c1ccc(F)cc1F` [Fluconazole], the “minimum inhibitory concentration (MIC) values” in experiment [1] was 400 µg/mL (≈ 1310 µM). In addition, the IC50 in experiment [2] is 4.8 µM.

Regarding `CCC(C)n1ncn(-c2ccc(N3CCN(c4ccc(OCC5COC(Cn6cncn6)(c6ccc(Cl)cc6Cl)O5)cc4)CC3)cc2)c1=O` (stereo not drawn) [Itraconazole], the ED50 in experiment [3] (Day 7 post infection) turned out to be 8.84 mg/kg body weight; in experiment [3] (Day 14 post infection), 21.02 mg/kg body weight.

Turning to `C[C@@H](n1ncn(-c2ccc(OCC(F)(F)C(F)F)cc2)c1=O)[C@](O)(Cn1cncn1)c1ccc(F)cc1F` [TAK 187, 2-[(1R,2R)-2-(2,4-difluorophenyl)-2-hydroxy-1-methyl-3-(1H-1,2,4-triazol-1-yl)propyl]-4-(2′,2′,3′,3′-tetraflouropropoxyphenyl)-3(2H,4H)-1,2,4-triazolone], the ED50 in experiment [3] (Day 7 post infection) is 10.08 mg/kg body weight; in experiment [3] (Day 14 post infection), 20.39 mg/kg body weight.
